Target: CB1 receptor (Homo sapiens, UniProt P21554)
Assay: CB1 cAMP Antagonist Assay (LANCE Ultra cAMP kit)
Assay type: cell-based
Conditions: Flp-In CHO cells stably expressing the CB1 receptor; forskolin and CP55940 agonist at EC90; cAMP FRET readout
From the text: CB1 cAMP Antagonist Assay
LANCE Ultra cAMP kit (Perkin Elmer) was used to quantitate the amount of 3′,5′-cyclic adenosine monophosphate (cAMP) produced in Flp-In CHO (Invitrogen) cells stably expressing the CB1 receptor.
Forskolin was initially titrated to determine the response of the cells. The EC90 of forskolin was used for compound testing. CP55940 was titrated and used with EC90 of forskolin to determine the level of agonist stimulation. EC90 of the agonist was used for subsequent compound testing.
Forskolin (Sigma), CP55940 (Cayman Chemicals), and AM251 (MCE) were diluted in 100% DMSO, starting at 100 mM, 1 mM, and 1 mM respectively, in 3-fold serial dilutions. Test compounds were diluted in 100% DMSO starting from 10 mM, 3-fold dilutions. The cAMP assay buffer contains 1x Hank’s Buffered Saline Solution with Ca^2+ and Mg^2+ (Invitrogen), 5.3 mM HEPES (Invitrogen), 0.05% BSA, 0.5 mM IBMX (Sigma).
For all assays, cells were harvested, counted, and diluted in cAMP assay buffer to 1× 10^5 cells/mL. Only cells with viability >85% were used for the assay. Cells were seeded at 1000 cells/well in 384-well plates and 10 nL/well AM251 or test compound was added and incubated at 37° C. for 10 min. […] To detect the amount of cAMP produced, 5 µL of a 100x diluted stock of Eu-cAMP tracer and 5 µL of 200x diluted stock of Ulight-anti-cAMP were added to each well, and the plate incubated at 25° C. for 15 min. The FRET signal was read using an EnVision microplate reader (λex=320 nm, λem=615 nm and 665 nm).
The IC50 is determined by fitting the percentage of inhibition as a function of compound concentrations with the Hill equation, using a 4-parameter fit in either XLfit or GraphPad Prism.

Chain of CB1 receptor (P21554 whole entry): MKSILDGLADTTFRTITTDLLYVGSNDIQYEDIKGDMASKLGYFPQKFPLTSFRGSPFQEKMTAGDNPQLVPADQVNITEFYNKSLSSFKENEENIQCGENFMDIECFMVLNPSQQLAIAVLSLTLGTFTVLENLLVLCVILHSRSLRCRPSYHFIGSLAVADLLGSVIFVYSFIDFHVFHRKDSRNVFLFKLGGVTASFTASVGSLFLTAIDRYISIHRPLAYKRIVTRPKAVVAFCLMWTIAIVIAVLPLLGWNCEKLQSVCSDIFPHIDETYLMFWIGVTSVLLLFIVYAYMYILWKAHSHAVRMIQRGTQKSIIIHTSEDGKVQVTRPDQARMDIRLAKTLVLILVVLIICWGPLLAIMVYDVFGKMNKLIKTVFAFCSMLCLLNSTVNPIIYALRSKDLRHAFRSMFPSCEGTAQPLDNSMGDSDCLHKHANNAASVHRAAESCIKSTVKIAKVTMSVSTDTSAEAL

Compound	IC50 [µM]
NC(=O)CCn1c(N2CC3(CCc4ccccc43)C(c3ccc(Cl)cc3)=N2)nn(Cc2ccc(Cl)cc2)c1=O (stereo in doubt) [Compound 133, 3-[3-[(1S)-3-(4-chlorophenyl)-1,2,3,5-tetrahydrospiro[indene-1,4-pyrazol]-1-yl]-1-[(4-chlorophenyl)methyl]-5-oxo-4,5-dihydro-1H-1,2,4-triazol-4-yl]propanamide]	1 to 5
Cn1c(N2C[C@]3(CCc4ccccc43)C(c3ccc(Cl)cc3)=N2)nn(-c2ccc(Cl)cc2)c1=O [Compound 109]	> 5
COCCn1c(N2CC3(CCc4ccccc43)C(c3ccc(Cl)cc3)=N2)nn(Cc2ccc(Cl)cc2)c1=O (stereo in doubt) [Compound 120, 3-[(1R)-3-(4-chlorophenyl)-1,2,3,5-tetrahydrospiro[indene-1,4-pyrazol]-1-yl]-1-[(4-chlorophenyl)methyl]-4-(2-methoxyethyl)-4,5-dihydro-1H-1,2,4-triazol-5-one]	1 to 5
Cn1c(N2CC3(CCc4ccccc43)C(c3ccc(Cl)cc3)=N2)nn(CC2CCCCC2)c1=O (stereo in doubt) [Compound 140, 3-[(1R)-3-(4-chlorophenyl)-1,2,3,5-tetrahydrospiro[indene-1,4-pyrazol]-1-yl]-1-(cyclohexylmethyl)-4-methyl-4,5-dihydro-1H-1,2,4-triazol-5-one]	1 to 5
NC(=O)CCn1c(N2C[C@@]3(CCc4ccccc43)C(c3ccc(Cl)cc3)=N2)nn(-c2ccc(Cl)cc2)c1=O [Compound 128]	> 5
Cn1c(N2CC3(CCc4ccccc43)C(c3ccc(Cl)cc3)=N2)nn(CC2CCCCC2)c1=O (stereo in doubt) [Compound 139, 3-[(1S)-3-(4-chlorophenyl)-1,2,3,5-tetrahydrospiro[indene-1,4-pyrazol]-1-yl]-1-(cyclohexylmethyl)-4-methyl-4,5-dihydro-1H-1,2,4-triazol-5-one]	0.1 to 1
Cn1c(N2C[C@@H](c3ccccc3)C(c3ccc(Cl)cc3)=N2)n[nH]c1=O [Compound 181]	> 5
Cc1ccc(Cn2nc(N3CC(c4ccccc4)C(c4ccc(Cl)cc4)=N3)n(C)c2=O)cc1F (stereo not drawn) [Compound 175]	< 0.1
CC(C(N)=O)n1c(N2C[C@H](c3ccccc3)C(c3ccc(Cl)cc3)=N2)nn(Cc2ccc(CN3CCOCC3)cc2)c1=O (stereo partly drawn) [Compound 167]	0.1 to 1
Cn1c(N2C[C@H](c3ccccc3)C(c3ccc(Cl)cc3)=N2)n[nH]c1=O [Compound 172, 5-[(4S)-3-(4-chlorophenyl)-4-phenyl-4,5-dihydropyrazol-1-yl]-4-methyl-2H-1,2,4-triazol-3-one]	1 to 5
O=C(O)CCn1c(N2C[C@@]3(CCc4ccccc43)C(c3ccc(Cl)cc3)=N2)nn(-c2ccc(Cl)cc2)c1=O [Compound 130]	> 5
NC(=O)Cn1c(N2C[C@]3(CCc4ccccc43)C(c3ccc(Cl)cc3)=N2)nn(-c2ccc(Cl)cc2)c1=O [Compound 124, 2-[1-(4-chlorophenyl)-3-[(1R)-3-(4-chlorophenyl)-1,2,3,5-tetrahydrospiro[indene-1,4-pyrazol]-1-yl]-5-oxo-4,5-dihydro-1H-1,2,4-triazol-4-yl]acetamide]	0.1 to 1
Cc1ccc(Cn2nc(N3CC(c4ccccc4)C(c4ccc(Cl)cc4)=N3)n(C)c2=O)cn1 (stereo not drawn) [Compound 183]	0.1 to 1
NC(=O)CCn1c(N2CC3(CCc4ccccc43)C(c3ccc(Cl)cc3)=N2)nn(Cc2ccc(Cl)cc2)c1=O (stereo in doubt) [Compound 132, 3-[3-[(1R)-3-(4-chlorophenyl)-1,2,3,5-tetrahydrospiro[indene-1,4-pyrazol]-1-yl]-1-[(4-chlorophenyl)methyl]-5-oxo-4,5-dihydro-1H-1,2,4-triazol-4-yl]propanamide]	1 to 5
Cn1c(N2C[C@@H](c3ccccc3)C(c3ccc(Cl)cc3)=N2)nn(Cc2ccccc2)c1=O [Compound 166]	0.1 to 1
Cn1c(N2C[C@H](c3ccccc3)C(c3ccc(Cl)cc3)=N2)nn(CCc2ccc(C(=O)NCCO)cc2)c1=O [Compound 200]	0.1 to 1
NC(=O)Cn1c(N2C[C@@]3(CCc4ccccc43)C(c3ccc(Cl)cc3)=N2)nn(-c2ccc(Cl)cc2)c1=O [Compound 119]	> 5
CC(C(N)=O)n1c(N2CC(c3ccccc3)C(c3ccc(Cl)cc3)=N2)nn(CC2CCCCC2)c1=O (stereo not drawn) [Compound 158, 2-[3-[3-(4-chlorophenyl)-4-phenyl-4,5-dihydropyrazol-1-yl]-1-(cyclohexylmethyl)-5-oxo-1,2,4-triazol-4-yl]propanamide]	< 0.1
O=C(O)CCn1c(N2C[C@@]3(CCc4ccccc43)C(c3ccc(Cl)cc3)=N2)nn(Cc2ccc(Cl)cc2)c1=O [Compound 131]	> 5

Next, values leading:

IC50 [µM]	Compound
< 0.1	C[C@@H](c1ccc(Cl)cc1)n1nc(N2C[C@H](c3ccccc3)C(c3ccc(Cl)cc3)=N2)n(CC(N)=O)c1=O [Compound 153]
< 0.1	CCOC(=O)Cn1c(N2C[C@@H](c3ccccc3)C(c3ccc(Cl)cc3)=N2)nn(-c2ccc(Cl)cc2)c1=O [Compound 105, ethyl 2-[1-(4-chlorophenyl)-3-[(4R)-3-(4-chlorophenyl)-4-phenyl-4,5-dihydro-1H-pyrazol-1-yl]-5-oxo-4,5-dihydro-1H-1,2,4-triazol-4-yl]acetate]
> 5	C[C@H](C(N)=O)n1c(N2C[C@@H](c3ccccc3)C(c3ccc(Cl)cc3)=N2)nn(Cc2ccc(Cl)cc2)c1=O [Compound 180]
> 5	Cn1c(N2CC(c3ccccc3)C(c3ccc(Cl)cc3)=N2)nn(Cc2cccc(C(=O)O)c2)c1=O (stereo not drawn) [Compound 186]
< 0.1	COc1ccc(Cn2nc(N3C[C@H](c4ccccc4)C(c4ccc(Cl)cc4)=N3)n(C)c2=O)cc1 [Compound 143]
< 0.1	CCOC(=O)Cn1c(N2C[C@H](c3ccccc3)C(c3ccc(Cl)cc3)=N2)nn(-c2ccc(Cl)cc2)c1=O [Compound 104, ethyl 2-[1-(4-chlorophenyl)-3-[(4S)-3-(4-chlorophenyl)-4-phenyl-4,5-dihydro-1H-pyrazol-1-yl]-5-oxo-4,5-dihydro-1H-1 ,2,4-triazol-4-yl]acetate]
1 to 5	NC(=O)Cn1c(N2C[C@@H](c3ccccc3)C(c3ccc(Cl)cc3)=N2)nn(Cc2ccc(Cl)cc2)c1=O [Compound 106, 2-[3-[(4R)-3-(4-chlorophenyl)-4-phenyl-4,5-dihydro-1H-pyrazol-1-yl]-1-[(4-chlorophenyl)methyl]-5-oxo-4,5-dihydro-1H-1,2,4-triazol-4-yl]acetamide]
< 0.1	NC(=O)Cn1c(N2C[C@H](c3ccccc3)C(c3ccc(Cl)cc3)=N2)nn(-c2ccc(Cl)cc2)c1=O [Compound 111, (S)-2-(1-(4-chlorophenyl)-3-(3-(4-chlorophenyl)-4-phenyl-4,5-dihydro-1H-pyrazol-1-yl)-5-oxo-1,5-dihydro-4H-1,2,4-triazol-4-yl)acetamide]
0.1 to 1	Cn1c(N2C[C@H](c3ccccc3)C(c3ccc(Cl)cc3)=N2)nn(Cc2ccc(Cl)cc2)c1=O [Compound 102]
> 5	C[C@@H](C(=O)NCCO)n1c(N2C[C@@H](c3ccccc3)C(c3ccc(Cl)cc3)=N2)nn(Cc2ccc(Cl)cc2)c1=O [Compound 187, (2S)-2-[3-[(4R)-3-(4-chlorophenyl)-4-phenyl-4,5-dihydropyrazol-1-yl]-1-[(4-chlorophenyl)methyl]-5-oxo-1,2,4-triazol-4-yl]-N-(2-hydroxyethyl)propanamide]
1 to 5	C[C@H](c1ccc(Cl)cc1)n1nc(N2C[C@@H](c3ccccc3)C(c3ccc(Cl)cc3)=N2)n(CC(N)=O)c1=O [Compound 152]

Source: patent publication US20230192657A1, “1,2,4-TRIAZOLINONE CB1 INHIBITORS” (Goldfinch Bio, Inc., priority 2020, published 2023)
